Experimental data as given in patent US20240032546A1, “BRASSICA SEED MEAL (BSM)-BASED BIO-HERBICIDE FOR INHIBITING WEED GERMINATION, AND PREPARATION METHOD AND USE THEREOF” (Institute of Soil Science, CAS, priority 2022, published 2024).

System: field weeds (Portulaca oleracea L., Bothriochloa ischaemum L., Eleusine indica L., Setaria viridis L., and Amaranthus spinosus L.)
Assay: Field soil test of weed growth and germination inhibition
Assay type: in vivo
Settings: after 1 week, dazomet 40 g/m2, BSM-based bio-herbicide 0.8 wt %
Procedure: Dazomet was added to the field soil at 40 g/m 2 of soil (as a treatment 1). The BSM-based bio-herbicide (Example 1) was added to another field soil at 0.8 wt % of the BSM per mu of soil (1 mu=300,000 jin) (as a treatment 2). The same area of field soil without adding any exogenous substances was used as a control. After 1 week, the weed growth of the two treatments and the control (field weeds included Portulaca oleracea L., Bothriochloa ischaemum L., Eleusine indica L., Setaria viridis L., and Amaranthus spinosus L.) was counted, and the germination inhibition rate of weed seeds was calculated.

## CN1CSC(=S)N(C)C1 [dazomet, Dazomet]
  inhibition rate to the field weeds compared with the control: 86.84%
Control 1.550 kg/m^2
  weight of field weeds: 0.204 kg/m^2
